Experimental data: PubChem BioAssay AID264 (DTP/NCI, 2004)
Values joined by “and” are separate entries in the source; they are usually repeats but may differ in a detail not shown here. Equal entries are not always repeated. Results filed as inconclusive are left out.

Tested on: nude mice, LX-1 lung xenograft intrarenal, tumor weight T/C
Experiment: NCI In Vivo Anticancer Drug Screen. Data for tumor model Human Lung LX-1 Xenograft (intrarenal inoculation) in NU/NU Swiss (nude) mice
Details: endpoint: mean tumor weight change, higher = larger tumour
Outline: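 In vivo, transplantable tumor; compound vs vehicle arms; tumor size measured; value = T/C.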

[1] = dose: 300.0 mg/kg/injection, schedule: Q04DX003 (sc), vehicle: saline with Tween-80
[2] = dose: 600.0 mg/kg/injection, schedule: Q04DX003 (sc), vehicle: saline with Tween-80
[3] = dose: 1200.0 mg/kg/injection, schedule: Q04DX003 (sc), vehicle: saline with Tween-80
[4] = dose: 2400.0 mg/kg/injection, schedule: Q04DX003 (sc), vehicle: saline with Tween-80
[5] = dose: 200.0 mg/kg/injection, schedule: Q01DX010 (sc), vehicle: saline

SMILES: Cc1ccccc1N(CC1CO1)CC1CO1 (centres undefined)
- T/C (dose: 50.0 mg/kg/injection, schedule: Q01DX010 (sc), vehicle: suspension in saline): 33 % of control
- T/C (dose: 100.0 mg/kg/injection, schedule: Q01DX010 (sc), vehicle: suspension in saline): 22 % of control
- T/C (dose: 200.0 mg/kg/injection, schedule: Q01DX010 (sc), vehicle: suspension in saline): 104 % of control
- T/C (dose: 400.0 mg/kg/injection, schedule: Q01DX010 (sc), vehicle: suspension in saline): 59 % of control

SMILES: O=C1NC(=O)/C(=C/C=C/c2ccccc2)S1
- T/C [1]: 87 % of control
- T/C [2]: 118 % of control
- T/C [3]: 94 % of control
- T/C [4]: 62 % of control

SMILES: CC(=O)Oc1ccccc1O
- T/C (dose: 150.0 mg/kg/injection, schedule: Q04DX003 (sc), vehicle: saline + Tween-80 + alcohol): 105 % of control
- T/C (dose: 300.0 mg/kg/injection, schedule: Q04DX003 (sc), vehicle: saline + Tween-80 + alcohol): 101 % of control
- T/C (dose: 600.0 mg/kg/injection, schedule: Q04DX003 (sc), vehicle: saline + Tween-80 + alcohol): 89 % of control
- T/C (dose: 1200.0 mg/kg/injection, schedule: Q04DX003 (sc), vehicle: saline + Tween-80 + alcohol): 82 % of control

SMILES: CC1(O)CC23CC(O)C4(O)C(CC(O)C4(C)C)C(C)(O)C2CCC1C3O (centres undefined)
- T/C (dose: 0.25 mg/kg/injection, schedule: Q04DX003 (sc), vehicle: Klucel (hydroxypropylcellulose) (HPC)): 78 % of control
- T/C (dose: 0.5 mg/kg/injection, schedule: Q04DX003 (sc), vehicle: Klucel (hydroxypropylcellulose) (HPC)): 77 % of control
- T/C (dose: 1.0 mg/kg/injection, schedule: Q04DX003 (sc), vehicle: Klucel (hydroxypropylcellulose) (HPC)): 58 % of control

SMILES: CCCC(=O)O
- T/C (dose: 100.0 mg/kg/injection, schedule: Q01DX010 (sc), vehicle: saline): 103 % of control
- T/C [5]: 77 % of control
- T/C (dose: 400.0 mg/kg/injection, schedule: Q01DX010 (sc), vehicle: saline): 71 % of control

SMILES: CCOC(=O)C1(c2ccccc2)C(=O)Oc2ccccc21 (centres undefined)
- T/C [1]: 54 % of control
- T/C [2]: 103 % of control
- T/C [3]: 73 % of control
- T/C [4]: 74 % of control

SMILES: CCOC(=O)Nc1cc2c(c(N)n1)N=C(c1ccccc1)CN2
- T/C (dose: 3.12 mg/kg/injection, schedule: Q04DX003 (sc), vehicle: saline with Tween-80): 68 % of control
- T/C (dose: 6.25 mg/kg/injection, schedule: Q04DX003 (sc), vehicle: saline with Tween-80): 82 % of control and 96 % of control
- T/C (dose: 12.5 mg/kg/injection, schedule: Q04DX003 (sc), vehicle: saline with Tween-80): 73 % of control
- T/C (dose: 25.0 mg/kg/injection, schedule: Q04DX003 (sc), vehicle: saline with Tween-80): 30 % of control and 54 % of control

SMILES: Nc1cc2[nH]cnc2c(=O)[nH]1
- T/C (dose: 25.0 mg/kg/injection, schedule: Q01DX010 (sc), vehicle: saline): 25 % of control
- T/C [5]: 16 % of control and 18 % of control

SMILES: COc1ccc2nc3cc(Cl)ccc3c(NCCNCCNCCNc3c4ccc(Cl)cc4nc4ccc(OC)cc34)c2c1
- T/C (dose: 12.5 mg/kg/injection, schedule: Q01DX010 (sc), vehicle: saline with Tween-80): 81 % of control
- T/C (dose: 50.0 mg/kg/injection, schedule: Q01DX010 (sc), vehicle: saline with Tween-80): 106 % of control
- T/C (dose: 200.0 mg/kg/injection, schedule: Q01DX010 (sc), vehicle: saline with Tween-80): 70 % of control
- T/C (dose: 400.0 mg/kg/injection, schedule: Q01DX010 (sc), vehicle: saline with Tween-80): 46 % of control

SMILES: CC1=NNC(=O)C1CCO (centres undefined)
- T/C (dose: 300.0 mg/kg/injection, schedule: Q04DX003 (sc), vehicle: Klucel (hydroxypropylcellulose) (HPC)): 112 % of control
- T/C (dose: 600.0 mg/kg/injection, schedule: Q04DX003 (sc), vehicle: Klucel (hydroxypropylcellulose) (HPC)): 115 % of control
- T/C (dose: 1200.0 mg/kg/injection, schedule: Q04DX003 (sc), vehicle: Klucel (hydroxypropylcellulose) (HPC)): 82 % of control
- T/C (dose: 2400.0 mg/kg/injection, schedule: Q04DX003 (sc), vehicle: Klucel (hydroxypropylcellulose) (HPC)): 106 % of control

SMILES: COC1CC(C)C(OC)C2=CC(=O)C=C(NC(=O)/C(C)=C/C=C\C(C)C(OC(N)=O)/C(C)=C\C(C)C1OC)C2=O (centres undefined)
- T/C (dose: 12.5 mg/kg/injection, schedule: Q04DX003 (sc), vehicle: saline + alcohol): 35 % of control
- T/C (dose: 25.0 mg/kg/injection, schedule: Q04DX003 (sc), vehicle: saline + alcohol): 87 % of control
- T/C (dose: 50.0 mg/kg/injection, schedule: Q04DX003 (sc), vehicle: saline + alcohol): 73 % of control
